Results on 8 compounds are retold here after patent US7022667B2, “O-derivatized nocathiacin derivatives” (Bristol-Myers Squibb Company, priority 2002, dated 2006).

≈ marks a conversion by molar mass, not a printed value.

What all share (experiment): MIC, broth micro dilution assay (NCCLS)
Holding throughout (type): cell-based

Test [1] has as its system Enterococcus faecalis A20688. Particulars: Mueller-Hinton medium, 35° C., 18 hours. On the procedure: (§1) The serial broth dilution method used Mueller-Hinton medium except for the Streptococcus pneumoniae which was tested in 50% Mueller-Hinton medium and 50% Todd Hewitt medium. The final bacterial inoculate contained approximately 5×10^5 cfu/well and was run on microtiter plates. The volume of each well was 100 μL and the plates were incubated at 35° C. for 18 hours in ambient air. The MIC was defined as the lowest drug concentration that prevented visible growth.

The subject of test [2] is Staphylococcus aureus A15090. Conditions: Mueller-Hinton medium, 35° C., 18 hours. How it is done:
as §1

Test [3] relates to Streptococcus pneumoniae A28272. Conditions: 50% Mueller-Hinton medium and 50% Todd Hewitt medium, 35° C., 18 hours. On the procedure: as §1

For the compound `C=C(NC(=O)c1csc(-c2nc3c(cc2O)-c2nc(cs2)C(=O)NC(C(C)O)C(=O)NC(=C(C)OC)c2nc(cs2)C(=O)NC2c4nc(cs4)C(=O)NC(COC(=O)c4c5c6c(cccc6n4OCc4ccc(C(=O)O)cc4)COC(=O)C(OC4CC(C)(O)C(N(C)C)C(C)O4)C2OC5)c2nc-3cs2)n1)C(N)=O` (stereo not drawn) [Example 11], the “MIC (μg/mL) Enterococcus faecalis A20688” value in test [1] is over 128 µg/mL. For the same compound, the “MIC (μg/mL) Staphylococcus aureus A15090” value in test [2] stood at 16 µg/mL (≈ 10.2 µM). Also, in test [3], the “MIC (μg/mL) Streptococcus pneumoniae A28272” value turned out to be 0.06 µg/mL (≈ 0.0382 µM).

As for `C=C(NC(=O)c1csc(-c2nc3c(cc2O)-c2nc(cs2)C(=O)NC(C(C)O)C(=O)NC(=C(C)OC)c2nc(cs2)C(=O)NC2c4nc(cs4)C(=O)NC(COC(=O)c4c5c6c(cccc6n4OCCC[N+](C)(C)C)COC(=O)C(OC4CC(C)(O)C(N(C)C)C(C)O4)C2OC5)c2nc-3cs2)n1)C(N)=O` (stereo not drawn) [Example 14], the “MIC (μg/mL) Enterococcus faecalis A20688” value in test [1] was found to be 2.0 µg/mL. The “MIC (μg/mL) Staphylococcus aureus A15090” value in test [2] is over 128 µg/mL. In test [3], the “MIC (μg/mL) Streptococcus pneumoniae A28272” value came to 0.5 µg/mL.

`C=C(NC(=O)c1csc(-c2nc3c(cc2O)-c2nc(cs2)C(=O)NC(C(C)O)C(=O)NC(=C(C)OC)c2nc(cs2)C(=O)NC2c4nc(cs4)C(=O)NC(COC(=O)c4c5c6c(cccc6n4OCOP(=O)(O)O)COC(=O)C(OC4CC(C)(O)C(N(C)C)C(C)O4)C2OC5)c2nc-3cs2)n1)C(N)=O` (stereo not drawn) [Example 12]: in test [1], the “MIC (μg/mL) Enterococcus faecalis A20688” value turned out to be 1.0 µg/mL (≈ 0.646 µM). In addition, the “MIC (μg/mL) Staphylococcus aureus A15090” value in test [2] was determined as 0.25 µg/mL (≈ 0.162 µM). The “MIC (μg/mL) Streptococcus pneumoniae A28272” value in test [3] was 0.015 µg/mL (≈ 0.00969 µM).

Turning to `C=C(NC(=O)c1csc(-c2nc3c(cc2O)-c2nc(cs2)C(=O)NC(C(C)O)C(=O)NC(=C(C)OC)c2nc(cs2)C(=O)NC2c4nc(cs4)C(=O)NC(COC(=O)c4c5c6c(cccc6n4OC)COC(=O)C(OC4CC(C)(O)C(N(C)C)C(C)O4)C2OC5)c2nc-3cs2)n1)C(N)=O` (stereo not drawn) [Example 6], the “MIC (μg/mL) Enterococcus faecalis A20688” value in test [1] came to 0.125 µg/mL (≈ 0.0861 µM). In test [2], the “MIC (μg/mL) Staphylococcus aureus A15090” value was 0.03 µg/mL (≈ 0.0207 µM). Also, the “MIC (μg/mL) Streptococcus pneumoniae A28272” value in test [3] stood at 0.003 µg/mL (≈ 0.00207 µM).

As for `C=C(NC(=O)c1csc(-c2nc3c(cc2OCCCS(=O)(=O)[O-])-c2nc(cs2)C(=O)NC(C(C)O)C(=O)NC(=C(C)OC)c2nc(cs2)C(=O)NC2c4nc(cs4)C(=O)NC(COC(=O)c4c5c6c(cccc6n4OCCCS(=O)(=O)[O-])COC(=O)C(OC4CC(C)(O)C(N(C)C)C(C)O4)C2OC5)c2nc-3cs2)n1)C(N)=O.[Na+].[Na+]` (stereo not drawn) [Example 67], in test [1], the “MIC (μg/mL) Enterococcus faecalis A20688” value came to 128 µg/mL. The “MIC (μg/mL) Staphylococcus aureus A15090” value in test [2] is over 128 µg/mL. In addition, the “MIC (μg/mL) Streptococcus pneumoniae A28272” value in test [3] was found to be 0.5 µg/mL.

Consider `C=C(NC(=O)c1csc(-c2nc3c(cc2O)-c2nc(cs2)C(=O)NC(C(C)O)C(=O)NC(=C(C)OC)c2nc(cs2)C(=O)NC2c4nc(cs4)C(=O)NC(COC(=O)c4c5c6c(cccc6n4OCCn4ccnc4)COC(=O)C(OC4CC(C)(O)C(N(C)C)C(C)O4)C2OC5)c2nc-3cs2)n1)C(N)=O` (stereo not drawn) [Example 46], for which, in test [1], the “MIC (μg/mL) Enterococcus faecalis A20688” value was determined as 1.0 µg/mL (≈ 0.653 µM). Moreover, in test [2], the “MIC (μg/mL) Staphylococcus aureus A15090” value turned out to be 0.5 µg/mL (≈ 0.326 µM). Further, the “MIC (μg/mL) Streptococcus pneumoniae A28272” value in test [3] came to 0.015 µg/mL (≈ 0.00979 µM).

On to `C=C(NC(=O)c1csc(-c2nc3c(cc2O)-c2nc(cs2)C(=O)NC(C(C)O)C(=O)NC(=C(C)OC)c2nc(cs2)C(=O)NC2c4nc(cs4)C(=O)NC(COC(=O)c4c5c6c(cccc6n4OS(=O)(=O)[O-])COC(=O)C(OC4CC(C)(O)C(N(C)C)C(C)O4)C2OC5)c2nc-3cs2)n1)C(N)=O.[Na+]` (stereo not drawn) [Example 64], for which, in test [1], the “MIC (μg/mL) Enterococcus faecalis A20688” value was 0.125 µg/mL. The “MIC (μg/mL) Staphylococcus aureus A15090” value in test [2] worked out at 1.0 µg/mL. Besides, the “MIC (μg/mL) Streptococcus pneumoniae A28272” value in test [3] came out at 0.06 µg/mL.

With `C=C(NC(=O)c1csc(-c2nc3c(cc2O)-c2nc(cs2)C(=O)NC(C(C)O)C(=O)NC(=C(C)OC)c2nc(cs2)C(=O)NC2c4nc(cs4)C(=O)NC(COC(=O)c4c5c6c(cccc6n4OCc4ccc(C(=O)OC6CCCCO6)cc4)COC(=O)C(OC4CC(C)(O)C(N(C)C)C(C)O4)C2OC5)c2nc-3cs2)n1)C(N)=O` (stereo not drawn) [Example 10], the “MIC (μg/mL) Enterococcus faecalis A20688” value in test [1] came out at 0.5 µg/mL (≈ 0.302 µM). Moreover, the “MIC (μg/mL) Staphylococcus aureus A15090” value in test [2] is 0.5 µg/mL (≈ 0.302 µM). In test [3], the “MIC (μg/mL) Streptococcus pneumoniae A28272” value worked out at 0.015 µg/mL (≈ 0.00906 µM).
